Publication PMC11211886 (Frontiers in Pharmacology, 2024)
Where “and” joins values, the source holds several entries; their conditions need not be identical. Equal entries are not always repeated.

Tests used:
CYP3A4 mRNA = assay: CYP induction in human hepatocytes, CYP3A4 mRNA (RT-PCR); type: in vitro ADME
Description: […] […] […] Enzyme activity for each CYP isoform was reported as a fold change over vehicle control and the percent of positive control (detailed calculation in Supplementary 1.1). Hepatocytes were harvested with a lysis buffer from RNeasy 96 Kit (Qiagen Inc., Germantown, MD, USA) to isolate RNA, which was analyzed by real-time quantitative polymerase chain reaction (RT-PCR). […] Emax (the maximal observed induction) and EC50 (the concentration that supports half-maximal induction) were estimated by non-linear regression of fold increase in CYP mRNA expression versus concentration plots.
% of positive control = [(fold change in treated sample)-1] / [(fold change in positive control)-1] × 100

[1] = Whole blood-to-plasma partition, dog blood; type: in vitro ADME
Description: The whole blood and plasma samples were incubated at 37°C for up to 1 h. Serial samples (150 µL) were collected at different time points (0, 10, and 60 min) and transferred into new tubes. The whole blood samples were then centrifuged at 1700 g for 15 min to harvest plasma.

CYP2C8 = target: T1, CYP2C8 (Homo sapiens, UniProt P10632); assay: Reversible CYP inhibition in HLM, CYP2C8 (paclitaxel); type: in vitro ADME; settings: for enzyme activity remaining: CYP2C8, HLM
T1 construct: tissue Life Technologies (Durham, NC, USA); host or cells: human liver microsomes
T1 sequence (P10632 1-490): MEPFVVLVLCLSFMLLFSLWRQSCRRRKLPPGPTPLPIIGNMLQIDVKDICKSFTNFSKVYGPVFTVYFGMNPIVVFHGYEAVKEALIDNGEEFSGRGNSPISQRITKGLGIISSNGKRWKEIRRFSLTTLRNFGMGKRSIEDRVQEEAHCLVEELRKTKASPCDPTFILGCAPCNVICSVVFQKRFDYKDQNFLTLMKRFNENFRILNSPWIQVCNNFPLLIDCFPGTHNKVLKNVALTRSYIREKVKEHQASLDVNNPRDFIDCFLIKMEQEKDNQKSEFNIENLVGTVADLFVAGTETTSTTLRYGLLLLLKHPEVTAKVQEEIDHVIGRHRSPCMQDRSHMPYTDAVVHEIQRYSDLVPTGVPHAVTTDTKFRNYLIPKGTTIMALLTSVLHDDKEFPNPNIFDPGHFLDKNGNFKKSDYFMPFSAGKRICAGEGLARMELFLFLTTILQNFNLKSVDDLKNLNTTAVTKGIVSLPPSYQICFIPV
Description: The markers used to determine the activities of CYP isoforms were phenacetin O-deethylation for CYP1A2 (probe substrate: 50 µM phenacetin), bupropion hydroxylation for CYP2B6 (probe substrate: 70 µM bupropion), paclitaxel 6α-hydroxylation for CYP2C8 (probe substrate: 10 µM paclitaxel), diclofenac 4′-hydroxylation for CYP2C9 (probe substrate: 5 µM diclofenac), S-(+)-mephenytoin 4′-hydroxylation for CYP2C19 (probe substrate: 20 µM S-(+)-mephenytoin), dextromethorphan O-demethylation for CYP2D6 (probe substrate: 6 µM dextromethorphan), chlorzoxazone 6′-hydroxylation for CYP2E1 (probe substrate: 70 µM chlorzoxazone), and testosterone 6β-hydroxylation and midazolam 1′-hydroxylation for CYP3A4/5 (probe substrate: 45 µM testosterone and 5 µM midazolam). […] Alpha-naphthoflavone (0.04 µM), 2-phenyl-2-(1-piperidinyl)propane (5 µM), quercetin (1 µM), sulfaphenazole (0.5 µM), ticlopidine (4 µM), quinidine (0.2 µM), diethyldithiocarbamate (20 µM), and ketoconazole (0.05 µM) were used as positive inhibitors of CYP1A2, 2B6, 2C8, 2C9, 2C19, 2D6, 2E1, and 3A4, respectively. The vehicle control was prepared in the same composition as inhibitor solutions but free of inhibitors. The concentrations of probe substrates were close to Km values that were determined in-house and within the range recommended by the FDA ([Huang et al., 2007]). Reaction mixtures were incubated at 37°C for 5, 20, or 30 min, depending on the probe substrates of CYP isoforms. The reactions were terminated by adding cold acetonitrile containing IS, and the terminated incubation mixtures were centrifuged at 3,000 g for 10 min before LC-MS/MS analysis.

[2] = parameters: method as in Cao et al., 2023; settings: single oral 30 mg, high-fat diet, ref Cao et al., 2023, cited from earlier work
CYP3A4/5 = assay: Time-dependent CYP inhibition in HLM, CYP3A4/5; type: in vitro ADME, human; settings: 10 μM, 30 min pre-incubation with NADPH
Description: The procedure of time-dependent CYP inhibition was similar to that used for CYP reversible inhibition, as mentioned above, except that a pre-incubation step was added. […] Another appropriate volume of the NADPH-regenerating system and probe substrate were added to initiate the CYP isoform enzyme activity test step. For this step, the incubation period was 10 min, except for CYP2B6, CYP2C8, and CYP3A4/5 (probe substrate: midazolam), which was 3 min to make sure the reaction was under initial linear rates. After incubation for the designated time periods at 37°C, the ice-cold acetonitrile containing IS was added to quench the reaction. […] (Ainactivator/[…] represents the enzyme activity remaining due to the inhibition by the diluted inactivator in the enzyme activity test step, and (Ainactivator/[…] represents the remaining enzyme activity due to pre-incubation loss plus inhibition by the diluted inactivator in the enzyme activity test step.

C[C@H](Nc1ncnc(N)c1C#N)c1cc2ncc(Cl)n2nc1-c1ccccc1 [Amdizalisib]
R3 value (CYP3A4 induction, basic kinetic model) (CYP3A4 mRNA): ≤ 0.8
induction on CYP3A4 mRNA expression (CYP3A4 mRNA; 20 uM): >2-fold induction on CYP1A2, 2B6, 3A4, 2C9 mRNA expression at 20 uM
Gene expression Percent of PC (%) (CYP3A4 mRNA; CYP3A4, donor seven, 1 µM): 8.40%
Gene expression Percent of PC (%) (CYP3A4 mRNA; CYP3A4, donor seven, 3 µM): 2.70%
Gene expression Percent of PC (%) (CYP3A4 mRNA; CYP3A4, donor seven, 10 µM): 46.6%
Gene expression Percent of PC (%) (CYP3A4 mRNA; CYP3A4, donor seven, 20 µM): 23.3%
Gene expression Percent of PC (%) (CYP3A4 mRNA; CYP3A4, donor seven, 30 µM): 53.6%
Gene expression Percent of PC (%) (CYP3A4 mRNA; CYP3A4, donor six, 1 µM): 1.00%
Gene expression Percent of PC (%) (CYP3A4 mRNA; CYP3A4, donor six, 3 µM): 1.60%
Gene expression Percent of PC (%) (CYP3A4 mRNA; CYP3A4, donor six, 10 µM): 11.9%
Gene expression Percent of PC (%) (CYP3A4 mRNA; CYP3A4, donor six, 20 µM): 21.4%
Gene expression Percent of PC (%) (CYP3A4 mRNA; CYP3A4, donor six, 30 µM): 21.9%
Gene expression Percent of PC (%) (CYP3A4 mRNA; CYP3A4, donor two, 1 µM): 1.30%
Gene expression Percent of PC (%) (CYP3A4 mRNA; CYP3A4, donor two, 3 µM): 0.60%
Gene expression Percent of PC (%) (CYP3A4 mRNA; CYP3A4, donor two, 10 µM): 15.9%
Gene expression Percent of PC (%) (CYP3A4 mRNA; CYP3A4, donor two, 20 µM): 13.4%
Gene expression Percent of PC (%) (CYP3A4 mRNA; CYP3A4, donor two, 30 µM): 28.1%
Emax, CYP3A4 expression (CYP3A4 mRNA; donor seven): 6.97 fold
Emax, CYP3A4 expression (CYP3A4 mRNA; donor six): 35.7 fold
Emax, CYP3A4 expression (CYP3A4 mRNA; donor two): > 26.5 fold
RB ([1]; dog blood, 1 μM, 0 min): 1.01
fuB ([1]; dog, 0 min, 1 µM): 10.9%
fup ([1]; dog, 1 µM): 0.109
RB ([1]; dog, 10 min, 1 µM): 0.874
fuB ([1]; dog, 10 min, 1 µM): 12.5%
RB ([1]; dog, 60 min, 1 µM): 0.968
fuB ([1]; dog, 60 min, 1 µM): 11.3%
enzyme activity remaining (CYP2C8; 0.08 μM): 110% and 105%
enzyme activity remaining (CYP2C8; 0.4 μM): 105% and 109%
enzyme activity remaining (CYP2C8; 2 μM): 98.8% and 104%
enzyme activity remaining (CYP2C8; 10 μM): 67.3% and 76.5%
enzyme activity remaining (CYP2C8; 50 μM): 38.0% and 39.6%
IC50 (CYP2C8; HLM, reversible, without pre-incubation): 30.4 µM
median Tmax ([2]; Chinese healthy volunteers): 4 h
effect of food on extent of oral absorption (AUC) [2]: no significant effect
reduction of geometric mean of Cmax after food intake [2]: 36%
activity loss of CYP3A4/5 (CYP3A4/5; substrate midazolam): 16.9%
activity loss of CYP3A4/5 (CYP3A4/5; substrate testosterone): 11.7%
